Measurements as given in patent US20090030072A1, “PHARMACEUTICAL COMBINATION OF OPIOID AND PRO[…]” (SUCAMPO AG, priority 2007, published 2009).

System: oxycodone-induced constipation in mice
Assay: Graphite marker propulsion in the intestine, oxycodone-induced constipation in mice
Format: in vivo, Male Crlj: CD1 (ICR) mice
Settings: 150 minutes after graphite marker
Procedure: Male Crlj: CD1 (ICR) mice were given oral administration of 0.1 mL of graphite maker (INK-30 containing 1% tragacanth gum). Immediately after administration of the graphite marker, the animals were treated orally with oxycodone at 5 mg/kg. The dosing volume of oxycodone was set at 5 mL/kg; the animals of the normal group were given the same volume of 0.5% CMC—Na. Immediately after administration of oxycodone or 0.5% CMC—Na, the animal was treated with Compound 1. The dosing volume of the Compound 1 was set at 5 mL/kg; the animals of the normal and control groups were given the same volume of water for injection. The animals were euthanized by cervical dislocation 150 minutes after administration of graphite marker, and the abdomen was cut open. The distance from the stomach to the cecum, and moving distance of the graphite marker in the intestine were measured. Propulsion rate was calculated by the following formula.
Propulsion rate (%)=(Moving distance of graphite marker/Distance from the stomach to the cecum)×100

| Structure (SMILES) | The graphite marker propulsion rate Mean ± S.E. (control group: oxycodone 5 mg/kg oral alone, n=15, p < 0.01 compared to normal group (99.8 ± 0.2)) [%] | The graphite marker propulsion rate Mean ± S.E. (control group: oxycodone 5 mg/kg oral alone, n=15, p < 0.01 compared to normal group (99.8 ± 0.2), listed as Oxycodone) [%] | The graphite marker propulsion rate Mean ± S.E. (Compound 1 100 μg/kg combined with oxycodone 5 mg/kg oral, n=15, p < 0.05 compared to control group) [%] |
| --- | --- | --- | --- |
| COc1ccc2c3c1O[C@H]1C(=O)CC[C@@]4(O)[C@@H](C2)N(C)CC[C@]314 [oxycodone] | 62.3±5.6 | 62.3 ± 5.6 |  |
| CCCCC(F)(F)C(=O)CCC1C(O)CC(=O)C1CCCCCCC(=O)O (stereo not drawn) [Compound 1, 13,14-dihydro-15-keto-16,16-difluoro-PGE1] |  |  | 80.5±5.5 |
